Assay results from patent US20110020362A1, “Adrenergic stimulation mediates hypersensitivity by inducing nerve growth factor expression” (priority 2009, published 2011).
Entries after “also recorded” stand apart in the source; their conditions may differ.

Assays:
[1] = test system: rats subjected to heterotypic chronic stress; experiment: Viscero-motor response (VMR) to graded colorectal distension after nine-day heterotypic chronic stress; type: in vivo, rat; settings: for heterotypic chronic stress-induced increase in viscero-motor response to colorectal distension: entire nine-day HeCS, post-HeCS vs baseline
Experimental: Two electrodes were implanted under general 2% isofluorane anesthesia in the external oblique abdominal muscle and exteriorized in the subscapular region. Rats were allowed one week to recover from surgery. Under 2% isofluoruthane anesthesia, a 5 cm long balloon constructed from a surgical glove finger and attached to tygon tubing was inserted 7 cm into the descending colon and rectum. Rats were placed in small Lucite cubicles (20×8×8 cm) and allowed to adapt for 30 minutes. colorectal distension was performed by rapidly inflating the balloon to constant pressures: 20, 30, 40, 50, 60 & 80 mm Hg, for 20 seconds followed by 2-minute rest. Electromygraphic (EMG) activity from the external oblique muscle was recorded on Biopac equipment (Biopac Systmes, Inc., Santa Barbara, Calif.). The EMG signal was amplified, filtered at 300 Hz and digitized. The area under the curve (AUC) for the EMG signal during each 20 seconds of distention was calculated using Acknowledge software (Biopac Systmes, Inc). The net value for each distension period was calculated by subtracting the baseline value derived from the average AUC for 20 seconds before and 20 seconds after the distention period.
(§1) A catheter (ReCathco) was inserted through the occipital membrane onto the top of the spinal cord. The end of the catheter rested at about L1. After measurement of baseline response to colorectal distension, the catheter was primed with the appropriate solution and connected to subcutaneously implanted osmotic pump (Durect Corporation, Cupertino, Calif.) filled with appropriate solution. The pump delivered a constant infusion of 0.93 μL/hour for 10.6 days. K252a, a non-specific antagonist of tyrosine kinase receptors (trk) including the high affinity trkA receptors (11), was dissolved in DMSO and administered in sterile saline containing 10% DMSO at a concentration of 0.067 mg/mL. Each rat received an initial bolus infusion of 0.67 μg followed by 1.5 μg/day from the osmotic pump. Previously validated anti-sense and missense oligonucleotides were used (12), TrkA antisense: […] (SEQ ID NO: 1) and mismatch: […] (SEQ ID NO: 2). Oligos were HPLC purified and purchased from Invitrogen. Rats received an initial bolus dose of 10 nmole in 10 uL. The catheter was attached to the pump, which delivered oligo at a rate of 0.5 nmole/hour. Stress protocol started 24-hours after attachment of the pump. Nerve growth factor neutralizing antibody (16 μg/kg i.p. in 0.5) was purchased from R&D systems (Minneapolis, Minn.) and reconstituted in phosphate buffered saline (PBS). Control rats received PBS containing an equal concentration of goat non-immune serum.

[2] = test system: TL colon dorsal root ganglia neurons; experiment: Patch-clamp electrophysiology of DiI-labeled colon-specific TL dorsal root ganglia neurons from treated rats; type: in vivo, rat
Experimental: The lipid soluble fluorescent dye 1,1′dioleyl-3,3,3′,3′-tetramethylindocarbocyanine methanesulfonate (DiI-I), 25 mg in 0.5 mL methanol, was injected in 2 μL volumes at eight to ten sites in distal colon wall starting at the pelvic girdle and moving toward the cecum. TL dorsal root ganglia neurons were isolated from dorsal root ganglia T13, L1 and L2 were dissected out and put in an ice-cold, oxygenated dissecting solution, containing (in mM): 130 NaCI, 5 KCI, 2 KH2PO4, 1.5 CaCl2, 6 MgSO4, glucose, and 10 HEPES, pH 7.2 (osmolarity, 305 mOsm), as described (10). Connective tissue free ganglia were transferred to a 10 ml dissecting solution containing collagenase D (1.8 mg/mL, Roche) and trypsin (1.0 mg/mL; Sigma, St. Louis, Mo.), and incubated for 1.5 hours at 34.5° C. DRGs are then taken from the enzyme solution, washed, and put in 2 mL of the dissecting solution containing DNase (0.5 mg/mL; Sigma). Cells were subsequently dissociated by trituration with fire-polished glass pipettes and placed on acid-cleaned glass cover slips. Dorsal root ganglia neurons containing the retrograde label were identified as bright red neurons using fluorescent microscopy with a rhodamine filter (excitation 546, barrier filter at 580) and Hoffman contrast optics. For current clamp experiment, cells were superfused (1.5 mL/min) at room temperature with control external solution containing (in mM): 130 NaCI, 5 KCI, 2 KH2PO4, 2.5 CaCl2, 1 MgCl2, 10 HEPES, and 10 glucose, pH adjusted to 7.4 with NaOH (295-300 mOsm). Recording pipettes pulled from borosilicate glass tubing had resistance of 1-4 MΩ. For perforated patch recording, pipette tip was initially filled with amphotericin-free pipette solution, containing (in mM): 100 KmeSO3, 40 KCI, and 10 HEPES, pH 7.25 adjusted with KOH (osmolarity, 290 mOsm). The pipette was then backfilled with same pipette solution containing amphotericin B (300 μg/ml). Whole cell currents and voltage were recorded with Dagan 3911 patch clamp amplifier; and data were acquired and analyzed by pCLAMP 9.2 (Axon Instruments). The currents were filtered at 2-5 kHz and sampled at 50 or 100 μsec per point.
as §1

[3] = exogenous administration; cited from earlier work
[4] = test system: TL colon dorsal root ganglia neurons; experiment: Electrophysiology of TL colon dorsal root ganglia neurons incubated in vitro with nerve growth factor; type: cell-based, rat; settings: 24 hours in vitro, high (250 ng/mL) vs low (2.5 ng/mL)
Experimental: The lipid soluble fluorescent dye 1,1′dioleyl-3,3,3′,3′-tetramethylindocarbocyanine methanesulfonate (DiI-I), 25 mg in 0.5 mL methanol, was injected in 2 μL volumes at eight to ten sites in distal colon wall starting at the pelvic girdle and moving toward the cecum. TL dorsal root ganglia neurons were isolated from dorsal root ganglia T13, L1 and L2 were dissected out and put in an ice-cold, oxygenated dissecting solution, containing (in mM): 130 NaCI, 5 KCI, 2 KH2PO4, 1.5 CaCl2, 6 MgSO4, glucose, and 10 HEPES, pH 7.2 (osmolarity, 305 mOsm), as described (10). Connective tissue free ganglia were transferred to a 10 ml dissecting solution containing collagenase D (1.8 mg/mL, Roche) and trypsin (1.0 mg/mL; Sigma, St. Louis, Mo.), and incubated for 1.5 hours at 34.5° C. DRGs are then taken from the enzyme solution, washed, and put in 2 mL of the dissecting solution containing DNase (0.5 mg/mL; Sigma). Cells were subsequently dissociated by trituration with fire-polished glass pipettes and placed on acid-cleaned glass cover slips. […] Whole cell currents and voltage were recorded with Dagan 3911 patch clamp amplifier; and data were acquired and analyzed by pCLAMP 9.2 (Axon Instruments). […]

[5] = test system: trkA; experiment: Western blot of trkA expression in dorsal root ganglia after intrathecal oligonucleotide; type: in vivo, rat
Experimental: as §1

[6] = test system: nerve growth factor; experiment: Nerve growth factor expression in distal colon tissue strips incubated in vitro with norepinephrine; type: cell-based, rat
Experimental: The distal colon, about 6 cm long was opened along the mesentery and dissected free of mucosa/submucosa and submucosal plexus. Tissues were either snap frozen in liquid nitrogen or washed in Hanks balanced salt solution and incubated in DME+10% fetal calf serum+penicillin/streptomycin containing norepinephrine for 24-hours. Tissue was homogenized in PBS+protease inhibitor cocktail purchased from Sigma and centrifuged at 13,000 g for 10 minutes. Nerve growth factor protein was measured by ELISA from R&D Systems (Minneapolis, Minn.).

[7] = test system: mucosal afferent mechanoreceptors; settings: IBS patients; cited from earlier work
[8] = HeCS rats, 200 μg/kg intraluminal in distal colon one day before HeCS
[9] = sham stressed rats, 200 μg/kg intraluminal in distal colon
[10] = intrathecal oligonucleotide, bolus 10 nmole then 0.5 nmole/hour
[11] = in vitro incubation for 24 hours
[12] = HeCS rats, intrathecal application

## C=C(C)[C@]12C[C@@H](C)[C@@]34O[C@](Cc5ccccc5)(O[C@@H]1[C@@H]3C=C(COC(=O)Cc1ccc(O)c(OC)c1)C[C@]1(O)C(=O)C(C)=C[C@@H]41)O2 [resiniferatoxin]
[1]; desensitization of afferent nerve endings, 200 μg/kg intraluminal in distal colon one day before HeCS
  induction of visceral hypersensitivity to colorectal distension: blocked the induction of visceral hypersensitivity
[2]; [8]
  HeCS-induced increase in the number of action potentials at 2× rheobase: significantly blocked
  HeCS-induced reduction in rheobase: significantly blocked
[2]; [9]
  resting membrane potential: no significant effect
  rheobase: no significant effect

## nerve growth factor: neurotrophin, nerve growth factor (NGF), applied to neurons in vitro at 250 or 2.5 ng/mL
[3]
  inflammatory hyperalgesia: mimics inflammatory hyperalgesia
[4]
  resting membrane potential: significant decline
  rheobase: significant decline

## trkA AS oligonucleotide: TrkA antisense: CATCAACGAAGTCACCAGACCG (SEQ ID NO: 1), previously validated, HPLC purified, from Invitrogen (listed as DNA, chemistry not given here)
[5]; intrathecal, catheter tip at about L1
  expression of trkA in TL dorsal root ganglia, relative to rats treated with MM oligonucleotide: about 50%
[5]; several segments caudal to the catheter tip, vs MM oligonucleotide
  trkA levels in LS DRG: No significant difference
[5]; several segments rostral to the catheter tip, vs MM oligonucleotide
  trkA levels in thoracic dorsal root ganglion: No significant difference
[1]; [10]
  heterotypic chronic stress-induced increase in viscero-motor response to colorectal distension: no significant difference
[1]; intrathecal oligonucleotide, bolus 10 nmole then 0.5 nmole/hour, listed as anti-sense ODN
  heterotypic chronic stress-induced increase in viscero-motor response to colorectal distension: suppressed

## NC[C@H](O)c1ccc(O)c(O)c1 [norepinephrine]
[6]; [11]
  expression of nerve growth factor in mucosa/submucosa: concentration-dependently increased
  expression of nerve growth factor in muscularis externa/serosa: concentration-dependently increased

## MM oligonucleotide: mismatch control oligonucleotide: CAACATCGAAGTGACGAGACCG (SEQ ID NO: 2) (listed as DNA, chemistry not given here)
[1]; [10]
  heterotypic chronic stress-induced increase in viscero-motor response to colorectal distension: significant increase

## COC(=O)[C@@]1(O)C[C@H]2O[C@]1(C)n1c3ccccc3c3c4c(c5c6ccccc6n2c5c31)C(=O)NC4 [k252a, K252a]
[1]; intrathecal osmotic pump, bolus 0.67 μg then 1.5 μg/day
  heterotypic chronic stress-induced increase in viscero-motor response to colorectal distension: no significant difference
[1]; intrathecal osmotic pump, bolus 0.67 μg then 1.5 μg/day, listed as k252A
  heterotypic chronic stress-induced increase in viscero-motor response to colorectal distension: suppressed
[2]; [12]
  HeCS-induced decrease in rheobase: significantly attenuated
  HeCS-induced depolarization of resting membrane potential: significantly attenuated
  HeCS-induced increase in the number of action potentials at 2× rheobase: significantly attenuated
[2]; HeCS rats, intrathecal treatment
  HeCS-induced increase in excitability of TL colon dorsal root ganglia neurons: blocked

## astressin
[6]; in vitro, with norepinephrine
  norepinephrine-induced expression of nerve growth factor in mucosa/submucosa: blocked this increase; also recorded: blocked this effect
  norepinephrine-induced expression of nerve growth factor in muscularis externa/serosa: had no effect; also recorded: no significant effect

## CCN(CC)CC(=O)Nc1c(C)cccc1C [lidocaine]
[7]
  pain-perception to rapid balloon distension: does not affect
  sensory perception to slow distension: blocks
